“Also recorded” adds a separate entry of the source. Marks after values point to notes of the source that are not given here.
Tested on: migraine attack
Assay: Intravenous dose-finding study in acute migraine: headache response (moderate or severe becoming mild or none) and secondary efficacy
Type: in vivo, human
Protocol: Preclinical and early clinical experiments predict acute anti-migraine efficacy of Compound I that is mediated through a non-vascular, primarily neural, mechanism. In a multi-centre, placebo-controlled, double-blind, group-sequential, adaptive treatment-assignment, proof-of-concept and dose-finding study, 130 patients were treated in-hospital during a migraine attack. Patients were allocated to an intravenous dose level of Compound I or placebo in small cohorts. The starting dose was 2.5 mg. Subsequent doses were adjusted, up or down, according to the safety and efficacy seen in the preceding cohort. The primary outcome measure was headache response defined as improvement from moderate or severe headache at baseline to mild or no headache at 2 hours post-dose. The study was designed to explore the overall dose response relationship but was not powered to differentiate individual doses from placebo, nor to detect effect differences for other migraine symptoms.
The study used a prospective, randomized, double-blind, placebo-controlled design with group-sequential adaptive-treatment assignment (Olesen J et al., N Engl J Med 2004: 350: 1104-10; Hall D B et al., Contemporary Clinical Trials 2005; 26: 349-63). […] The first cohort was allocated to the 2.5 mg dose level. The dose used in subsequent cohorts depended on the headache response (moderate or severe headache reduced to mild or none at 2 hours) of the previous cohort: if 2 or less of the 4 active-treated patients had responded, the dose was increased, and if 3 or more of the 4 active-treated patients had responded, the dose was reduced. The dose adjustment rules were chosen to identify doses of Compound I with efficacy similar to or better than an oral triptan. […] The occurrence of a drug-related serious adverse event would lead to automatic suspension of the randomization pending a safety review.
Patients were initially screened for eligibility at an out-patient visit outside a migraine attack, and were invited to return to the clinic for treatment with study medication of a new, moderate or severe migraine attack within 4 hours of onset. On return to the clinic, eligibility for the study was reconfirmed and the patient was randomized. Patients were eligible for the study if they were between 18 and 65 years of age and had at least a 1 year history of migraine with or without aura fulfilling the IHS diagnostic criteria 1.1 and 1.2.1 (2004), with a migraine onset before the age of 50 years (Headache Classification Subcommittee of the International Headache Society. The International Classification of Headache Disorders (second edition). Cephalalgia 2004: 24; Supp11:1-160). Patients had to be experiencing between 1 and 8 migraine attacks a month and not be using migraine prophylactic medication. Patients were in good general health and had no evidence of vascular disease or hypertension. Patients with previous intolerance of triptans were excluded. Pregnant or breast-feeding women were excluded, as were women of childbearing potential who were not using a highly reliable form of contraception.
On return of the patient to the clinic, instructions for dilution of study drug were obtained from an online randomization system by a pharmacist or other study personnel, independent of the investigator, and the study drug for infusion was prepared. Both investigator and pharmacist were blinded with regard to active or placebo and only the pharmacist knew the dilution. All patients received a 60 ml intravenous infusion over 20 minutes. Efficacy and safety data before and after administration of study drug were entered immediately into an electronic data capture system, so allowing the headache response to be used to drive dose-allocation for subsequent cohorts.
Data were entered concurrently into an online electronic data capture system. Patients were discharged from the clinic after 4 h and continued to record migraine symptoms and adverse events until 24 h using a diary card. […]

With `CN1CCC(C(=O)c2cccc(NC(=O)c3c(F)cc(F)cc3F)n2)CC1` [Compound I, 2,4,6-trifluoro-N-[6-(1-methyl-piperidin-4-ylcarbonyl)-pyridin-2-yl]-benzamide] the “Impression: very much/much better 2h” value (2.5 mg iv) was 75.0% of Patients, the “Nausea 2 h” value (2.5 mg iv) was 25.0% of Patients and the “No/mild disability 2 h” value (2.5 mg iv) was 75.0% of Patients. For the same compound, the “Pain freedom 2 h” value (2.5 mg iv) was 0.0% of Patients, the “Phonophobia 2 h” value (2.5 mg iv) was 25.0% of Patients and the “Photophobia 2 h” value (2.5 mg iv) was 25.0% of Patients. For the same compound, the Sustained pain free (2.5 mg iv) was 0.0% of Patients, the Sustained pain response (2.5 mg iv) was 50.0% of Patients and the “Use of rescue medication, 2-24 h” value (2.5 mg iv) was 25.0% of Patients. For the same compound, the “Proportion of Patients with headache response” value (from here on “Proportion of Patients”) (2.5 mg iv, 10 min post dose) was 0.0% of Patients, the “Proportion of Patients” value (2.5 mg iv, 20 min post dose) was 0.0% of Patients and the “Proportion of Patients” value (2.5 mg iv, 40 min post dose) was 0.0% of Patients. The “Proportion of Patients” value (2.5 mg iv, 60 min post dose) was 50.0% of Patients, the “Proportion of Patients” value (2.5 mg iv, 90 min post dose) was 50.0% of Patients and the “Proportion of Patients” value (2.5 mg iv, 120 min post dose) was 50.0% of Patients. The “Proportion of Patients” value (2.5 mg iv, 180 min post dose) was 50.0% of Patients, the “Proportion of Patients” value (2.5 mg iv, 240 min post dose) was 75.0% of Patients and the “Impression: very much/much better 2h” value (5 mg iv) was 8.3% of Patients. For the same compound, the “Nausea 2 h” value (5 mg iv) was 41.7% of Patients, the “No/mild disability 2 h” value (5 mg iv) was 16.6% of Patients and the “Pain freedom 2 h” value (5 mg iv) was 0.0% of Patients. The “Phonophobia 2 h” value (5 mg iv) was 41.7% of Patients, the “Photophobia 2 h” value (5 mg iv) was 75.0% of Patients and the Sustained pain free (5 mg iv) was 0.0% of Patients. For the same compound, the Sustained pain response (5 mg iv) was 8.3% of Patients, the “Use of rescue medication, 2-24 h” value (5 mg iv) was 91.7% of Patients and the “Proportion of Patients” value (5 mg iv, 10 min post dose) was 8.3% of Patients. The “Proportion of Patients” value (5 mg iv, 20 min post dose) was 16.7% of Patients, the “Proportion of Patients” value (5 mg iv, 40 min post dose) was 25.0% of Patients and the “Proportion of Patients” value (5 mg iv, 60 min post dose) was 25.0% of Patients. For the same compound, the “Proportion of Patients” value (5 mg iv, 90 min post dose) was 25.0% of Patients, the “Proportion of Patients” value (5 mg iv, 120 min post dose) was 16.7% of Patients and the “Proportion of Patients” value (5 mg iv, 180 min post dose) was 25.0% of Patients. For the same compound, the “Proportion of Patients” value (5 mg iv, 240 min post dose) was 33.3% of Patients, the “Impression: very much/much better 2h” value (10 mg iv) was 37.5% of Patients and the “Nausea 2 h” value (10 mg iv) was 12.5% of Patients. For the same compound, the “No/mild disability 2 h” value (10 mg iv) was 54.2% of Patients, the “Pain freedom 2 h” value (10 mg iv) was 20.8% of Patients and the “Phonophobia 2 h” value (10 mg iv) was 25.0% of Patients. The “Photophobia 2 h” value (10 mg iv) was 45.8% of Patients, the Sustained pain free (10 mg iv) was 12.5% of Patients and the Sustained pain response (10 mg iv) was 33.3% of Patients. For the same compound, the “Use of rescue medication, 2-24 h” value (10 mg iv) was 58.3% of Patients, the “Proportion of Patients” value (10 mg iv, 10 min post dose) was 8.3% of Patients and the “Proportion of Patients” value (10 mg iv, 20 min post dose) was 25.0% of Patients. The “Proportion of Patients” value (10 mg iv, 40 min post dose) was 37.5% of Patients, the “Proportion of Patients” value (10 mg iv, 60 min post dose) was 50.0% of Patients and the “Proportion of Patients” value (10 mg iv, 90 min post dose) was 45.8% of Patients. The “Proportion of Patients” value (10 mg iv, 120 min post dose) was 54.2% of Patients, the “Proportion of Patients” value (10 mg iv, 180 min post dose) was 54.2% of Patients and the “Proportion of Patients” value (10 mg iv, 240 min post dose) was 54.2% of Patients. The “onset of headache relief” value (20 mg and 30 mg iv) was “speed onset of headache relief; also recorded: rapid onset of headache relief”, the “Impression: very much/much better 2h” value (20 mg iv) was 42.9% of Patients and the “Nausea 2 h” value (20 mg iv) was 21.4% of Patients. For the same compound, the “No/mild disability 2 h” value (20 mg iv) was 57.1% of Patients, the “Pain freedom 2 h” value (20 mg iv) was 28.6% of Patients and the “Phonophobia 2 h” value (20 mg iv) was 25.0% of Patients. The “Photophobia 2 h” value (20 mg iv) was 42.9% of Patients, the Sustained pain free (20 mg iv) was 17.9% of Patients and the Sustained pain response (20 mg iv) was 35.7% of Patients. The “Use of rescue medication, 2-24 h” value (20 mg iv) was 53.6% of Patients, the “Proportion of Patients” value (20 mg iv, 10 min post dose) was 14.3% of Patients and the “Proportion of Patients” value (20 mg iv, 20 min post dose) was 39.3% of Patients. The “Proportion of Patients” value (20 mg iv, 40 min post dose) was 50.0% of Patients, the “Proportion of Patients” value (20 mg iv, 60 min post dose) was 53.6% of Patients and the “Proportion of Patients” value (20 mg iv, 90 min post dose) was 53.6% of Patients. The “Proportion of Patients” value (20 mg iv, 120 min post dose) was 64.3% of Patients, the “Proportion of Patients” value (20 mg iv, 180 min post dose) was 60.7* Percent of Patients and the “Proportion of Patients” value (20 mg iv, 240 min post dose) was 57.1* Percent of Patients. For the same compound, the “Impression: very much/much better 2h” value (30 mg iv) was 68.8% of Patients, the “Nausea 2 h” value (30 mg iv) was 6.3% of Patients and the “No/mild disability 2 h” value (30 mg iv) was 75.1% of Patients. For the same compound, the “Pain freedom 2 h” value (30 mg iv) was 37.5% of Patients, the “Phonophobia 2 h” value (30 mg iv) was 25.0% of Patients and the “Photophobia 2 h” value (30 mg iv) was 25.0% of Patients. For the same compound, the Sustained pain free (30 mg iv) was 18.8% of Patients, the Sustained pain response (30 mg iv) was 56.3% of Patients and the “Use of rescue medication, 2-24 h” value (30 mg iv) was 37.5% of Patients. The “associated symptoms (photophobia, phonophobia, nausea)” value (30 mg iv) was “reduced associated symptoms of photophobia, phonophobia, and nausea”, the “headache recurrence within 24 hours” value (30 mg iv) was “reduced headache recurrence” and the “moderate or severe disability reported” value (30 mg iv) was “reduced the percent of moderate or severe disability reported”. The “patient global impression 2 hours post dose” value (30 mg iv) was “increased the number of patients who felt much or very much better; also recorded: increase in the number of patients who felt much better or very much better”, the “use of rescue medication” value (30 mg iv) was “reduced the use of rescue medication” and the “pain free at 2 hours versus placebo” value (30 mg iv over 20 minutes) was “completely abolished headache in a greater number of patients than placebo; also recorded: completely abolishes headache (‘pain free’) in a greater number of patients than placebo”. The “Proportion of Patients” value (30 mg iv, 10 min post dose) was 12.5% of Patients, the “Proportion of Patients” value (30 mg iv, 20 min post dose) was 50.0% of Patients and the “Proportion of Patients” value (30 mg iv, 40 min post dose) was 75.0* Percent of Patients. The “Proportion of Patients” value (30 mg iv, 60 min post dose) was 75.0* Percent of Patients, the “Proportion of Patients” value (30 mg iv, 90 min post dose) was 68.8% of Patients and the “Proportion of Patients” value (30 mg iv, 120 min post dose) was 68.8% of Patients. For the same compound, the “Proportion of Patients” value (30 mg iv, 180 min post dose) was 68.8* Percent of Patients, the “Proportion of Patients” value (30 mg iv, 240 min post dose) was 68.8* Percent of Patients and the “Impression: very much/much better 2h” value (45 mg iv) was 50.0% of Patients. The “Nausea 2 h” value (45 mg iv) was 25.0% of Patients, the “No/mild disability 2 h” value (45 mg iv) was 25.0% of Patients and the “Pain freedom 2 h” value (45 mg iv) was 25.0% of Patients. For the same compound, the “Phonophobia 2 h” value (45 mg iv) was 25.0% of Patients, the “Photophobia 2 h” value (45 mg iv) was 25.0% of Patients and the Sustained pain free (45 mg iv) was 25.0% of Patients. For the same compound, the Sustained pain response (45 mg iv) was 25.0% of Patients, the “Use of rescue medication, 2-24 h” value (45 mg iv) was 25.0% of Patients and the “Proportion of Patients” value (45 mg iv, 10 min post dose) was 75.0* Percent of Patients. For the same compound, the “Proportion of Patients” value (45 mg iv, 20 min post dose) was 75.0% of Patients, the “Proportion of Patients” value (45 mg iv, 40 min post dose) was 75.0% of Patients and the “Proportion of Patients” value (45 mg iv, 60 min post dose) was 50.0% of Patients. The “Proportion of Patients” value (45 mg iv, 90 min post dose) was 75.0% of Patients, the “Proportion of Patients” value (45 mg iv, 120 min post dose) was 75.0% of Patients and the “Proportion of Patients” value (45 mg iv, 180 min post dose) was 75.0% of Patients. The “Proportion of Patients” value (45 mg iv, 240 min post dose) was 25.0% of Patients, the “time at which response starts to separate from placebo” value (doses of 20 mg and above, after start of infusion) was 20 min and the “efficacy in acute treatment of migraine” value (intravenous doses of 20 mg and higher) was “proved effective”. For the same compound, the “effective dose identified by predefined stopping rules” value (iv over 20 min, primary endpoint) was 20 mg.
